Consider 20 compounds from patent US20220106304A1, “Transcription Factor BRN2 Inhibitory Compounds as Therapeutics and Methods for Their Use” (The University of British Columbia, priority 2018, published 2022).

A short description of series [1]: Liver microsome metabolic stability, HLM. The series is classed as in vitro ADME. Conditions: HLM (first of two values), 1 μM compound, 0.25 mg/mL protein; for Met Stab % (60 mins HLM/MLM): percent remaining at 60 min, 1 mM NADPH; for half-life at 1 µM: human, liver microsomes, pH 7.4, read-out: T1/2 in (mins HLM/MLM). On the procedure: (§1) Potassium phosphate buffer (Kphos) was prepared by adding 0.647 g potassium phosphate monobasic (KH2PO4) and 3.527 g potassium phosphate dibasic ([…]) to 400 mL of Milli-Q water. pH of the buffer was adjusted to 7.4 and volume was made up to 500 mL.
(§2) Microsomes (20 mg/mL) were diluted in KH2PO4 buffer to prepare a concentration of 0.357 mg/mL.
(§3) Stock solutions of BRN2 inhibitors were prepared in DMSO at a concentration of 1 mM
(§4) A stock solution of 3.33 mM NADPH (3.33×) was prepared by dissolving appropriate amount of NADPH in KH2PO4 buffer.
(§5) Total Incubation volume: 100 μL
(§6) Compound concentration: 1 μM
(§7) Protein Concentration: 0.25 mg/mL
(§8) An 1120 μL aliquot of Kphos buffer (50 mM, pH 7.4) containing liver microsomes (0.357 mg/mL) were added to individual 2 mL tubes (final concentration 0.25 mg/mL). Test compounds (1 mM) and positive controls were directly spiked into respective tubes to prepare a concentration of 1.428 μM (final concentration 1 μM). From the above mix, 70 μL was added to individual wells of 96 well reaction plates and pre-incubated in a 37° C. water bath for 5 min. All the reactions were initiated by adding 30 μL of 3.33 mM NADPH (final concentration 1 mM). Reactions without NADPH and buffer controls (minus NADPH) at 0 min and 60 min were also incubated to rule out non-NADPH metabolism or chemical instability in the incubation buffer. All reactions were terminated using 100 μL of ice-cold acetonitrile containing internal standard at 0, 5, 15, 30 and 60 min. The plates were centrifuged at 4000 RPM for 15 min and 100 μL aliquots were submitted for analysis by LC-MS/MS.
(§9) Samples were monitored for parent compounds disappearance in MRM mode using LC-MS/MS.
(§10) The percent remaining of test compounds and positive control in each sample was determined by considering peak area ratio in the 0 minute sample as 100%. The Half-life of compounds in microsomes is calculated by formula:
(§11) Half-life (t½) (min)=0.693/k, where k is gradient of line determined from plot of peak area ratio (compound peak area/internal standard peak area) against time.
(§12) In vitro intrinsic clearance (CL'int) (units in mL/min/kg) was calculated using the formula.
(§13) [formula] • For liver microsomes, scaling factor used was 45 mg microsomal protein per gm liver. • Indicates liver weight (gm) which varies species wise. For mice the liver weights are 90 gm.
(§14) Where data is not available “na” is inserted.
(In general: Liver microsomes are a subcellular fraction often used to study metabolism.)

Series [2] can be described thus: Liver microsome metabolic stability, MLM. The series is classed as in vitro ADME. To be noted: MLM (single value or second of two), 1 μM compound, 0.25 mg/mL protein; for Met Stab % (60 mins HLM/MLM): percent remaining at 60 min, 1 mM NADPH; for half-life at 1 µM: mouse, liver microsomes, pH 7.4, read-out: T1/2 in (mins HLM/MLM). On the procedure:
as §1, §2, §3, §4, §5, §6, §7, §8, §9, §10, §11, §12, §13, §14

The target in the next series is T1, BRN2 (Homo sapiens, UniProt P20265).
T1 sequence (P20265 1-443): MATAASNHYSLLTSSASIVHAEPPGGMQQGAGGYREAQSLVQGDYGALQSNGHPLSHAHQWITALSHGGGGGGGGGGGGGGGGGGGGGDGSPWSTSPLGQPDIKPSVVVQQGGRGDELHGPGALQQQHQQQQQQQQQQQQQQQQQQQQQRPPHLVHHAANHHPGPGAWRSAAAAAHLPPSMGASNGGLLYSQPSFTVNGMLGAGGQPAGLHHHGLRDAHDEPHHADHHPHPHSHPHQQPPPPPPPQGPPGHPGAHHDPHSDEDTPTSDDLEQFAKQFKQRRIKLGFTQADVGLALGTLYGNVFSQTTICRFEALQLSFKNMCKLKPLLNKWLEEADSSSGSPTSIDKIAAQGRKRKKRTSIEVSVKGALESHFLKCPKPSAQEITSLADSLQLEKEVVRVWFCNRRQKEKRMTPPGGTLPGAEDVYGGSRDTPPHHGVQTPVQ
The experiment in a line: cell-based. To be noted: negative = activation; for inhibition at 10 µM: read-out: % BRN2 Inhibition (10 μM), 10 μM compound, 24 hours, 42D^ENZR cells stably expressing BRN2-luciferase reporter; for inhibition at 30 µM: read-out: % BRN2 Inhibition (30 μM), 30 μM compound, 24 hours, 42D^ENZR cells stably expressing BRN2-luciferase reporter. From the text:
Decreased expression of luciferase protein is validated via western blot to confirm downregulation and avoid false positive molecules that inhibit luciferase protein activity and not BRN2-drive luciferase expression. Molecules are prioritized by their inhibition potency to measure direct interaction with BRN2 in Step 2.
In TABLES 1 and 2, when a single value is mentioned in columns Met Stab % and T½, it refers to compound's stability in MLM and when two values are given they represent HLM/MLM. There is a distinction in TABLES 1 and 2 difference between “Active” and “Specific” or “Specificity”. Compounds are first tested to quantify inhibition of BRN2 transcriptional activity in a luciferase assay to determine “Activity” at […] and 30 μM concentrations. […] Where data is not available “na” is inserted. Where data has yet to be calculated the notation “nc” is used.
On the technique in general: A reporter such as luciferase makes a cellular process visible.

A value given as a limit tells only on which side of the number the result lay.

Usually inhibition stands for how much of the control response was suppressed. On to `c1ccc2c(c1)CCC2c1cnn(-c2nc3ccccc3s2)c1` (stereo not drawn) [VPC-7-43], for which, in series [1], the “Met Stab % (60 mins HLM/MLM)” value amounted to 20% and the half-life at 1 µM amounted to 27 min. In series [2], the “Met Stab % (60 mins HLM/MLM)” value was determined as 5% and the half-life at 1 µM stood at 14 min. For the same compound, on BRN2, the inhibition at 10 µM stood at 2% and the inhibition at 30 µM is 41%.
As to `c1ccc2c(c1)CCC2c1ccc(-c2nc3ccccc3s2)o1` (stereo not drawn) [VPC-7-44], in series [1], the “Met Stab % (60 mins HLM/MLM)” value stood at 62% and the half-life at 1 µM is above 60 min. For the same compound, in series [2], the “Met Stab % (60 mins HLM/MLM)” value is on record as 44% and the half-life at 1 µM amounted to 52 min. Besides, at BRN2, the inhibition at 10 µM came out at 83% and the inhibition at 30 µM stood at 93%.
With `Cn1c(-c2ccc(-c3ccccc3F)o2)nc2c(F)cccc21` [VPC-18-31, 4-Fluoro-2-(5-(2-fluorophenyl)furan-2-yl)-1-methyl-1H-benzo[d]imidazole], in series [1], the “Met Stab % (60 mins HLM/MLM)” value turned out to be 17% and the half-life at 1 µM was 2 min. Further, the “Met Stab % (60 mins HLM/MLM)” value in series [2] came out at 0%. For the same compound, at BRN2, the inhibition at 10 µM stood at 67.9% and the inhibition at 30 µM was found to be 77.8%.
As for `O=[N+]([O-])c1ccc2nc(-c3ccc(-c4ccccc4F)o3)[nH]c2c1` [VPC-18-32, 2-(5-(2-Fluorophenyl)furan-2-yl)-6-nitro-1H-benzo[d]imidazole], in series [1], the “Met Stab % (60 mins HLM/MLM)” value was 20% and the half-life at 1 µM came to 26 min. In series [2], the “Met Stab % (60 mins HLM/MLM)” value is reported as 4% and the half-life at 1 µM was 12 min. Moreover, at BRN2, the inhibition at 10 µM was found to be 83.7% and the inhibition at 30 µM worked out at 95.5%.
`c1ccc(-c2nc(-c3cc4ccccc4o3)cs2)cc1` [VPC-18-33, 4-(Benzofuran-2-yl)-2-phenylthiazole]: in series [1], the “Met Stab % (60 mins HLM/MLM)” value is given as 30% and the half-life at 1 µM was found to be 36 min. Moreover, in series [2], the “Met Stab % (60 mins HLM/MLM)” value is recorded as 1% and the half-life at 1 µM is 10 min. Further, at BRN2, the inhibition at 10 µM turned out to be 22.4% and the inhibition at 30 µM worked out at 57.2%.
Consider `COc1ccccc1-c1ccc(-c2nc3ccccc3n2C)o1` [VPC-18-35, 2-(5-(2-Methoxyphenyl)furan-2-yl)-1-methyl-1H-benzo[d]imidazole], for which, in series [1], the “Met Stab % (60 mins HLM/MLM)” value came out at 4% and the half-life at 1 µM was found to be 13 min. Moreover, in series [2], the “Met Stab % (60 mins HLM/MLM)” value was 0% and the half-life at 1 µM is 5 min. Also, on BRN2, the inhibition at 10 µM worked out at 51.6% and the inhibition at 30 µM is 95.8%.
In the case of `CCn1c(-c2ccc(-c3ccccc3)o2)nc2ccccc21` [VPC-18-36, 1-Ethyl-2-(5-phenylfuran-2-yl)-1H-benzo[d]imidazole], in series [1], the “Met Stab % (60 mins HLM/MLM)” value worked out at 15% and the half-life at 1 µM is 22 min. Moreover, in series [2], the “Met Stab % (60 mins HLM/MLM)” value stood at 2% and the half-life at 1 µM came out at 13 min. Besides, at BRN2, the inhibition at 10 µM is 57.5% and the inhibition at 30 µM was found to be 93.4%.
Regarding `Cn1c(-c2ccc(-c3ccc(F)cc3F)o2)nc2ccccc21` [VPC-18-41, 2-(5-(2,4-Difluorophenyl)furan-2-yl)-1-methyl-1H-benzo[d]imidazole], the “Met Stab % (60 mins HLM/MLM)” value in series [1] is reported as 0/0%. In series [2], the “Met Stab % (60 mins HLM/MLM)” value was 0/0%. Besides, on BRN2, the inhibition at 10 µM came to 57.5% and the inhibition at 30 µM stood at 91.1%.
For `CN1CCN(c2ccc(-c3nc4ccc(C(F)(F)F)cc4n3C)o2)CC1` [VPC-18-102], in series [2], the “Met Stab % (60 mins HLM/MLM)” value is 0% and the half-life at 1 µM was found to be 7 min. For the same compound, on BRN2, the inhibition at 10 µM was 22.6% and the inhibition at 30 µM was 55.5%.
In the case of `FC(F)(F)n1c(-c2ccc(-c3ccccc3)o2)nc2ccccc21` [VPC-18-103], in series [2], the “Met Stab % (60 mins HLM/MLM)” value was determined as 0% and the half-life at 1 µM is 9 min. In addition, at BRN2, the inhibition at 10 µM turned out to be 88.5% and the inhibition at 30 µM was 95.3%.
The matching figures for `FC(F)(F)c1ccc2cc(-c3csc(-c4cocn4)n3)oc2c1` [VPC-18-106]: 7%, 16 min, 90.6% and 90%.
`Clc1ccc2nc(-c3csc(-c4ccco4)n3)oc2c1` [VPC-18-107]: in series [2], the “Met Stab % (60 mins HLM/MLM)” value was 7% and the half-life at 1 µM was determined as 8 min. Further, at BRN2, the inhibition at 10 µM worked out at 36.9% and the inhibition at 30 µM came out at 66.9%.
Turning to `O=C1CCN(c2nc(-c3cc4ccc(Cl)cc4o3)cs2)C1` [VPC-18-109], in series [2], the “Met Stab % (60 mins HLM/MLM)” value came to 4% and the half-life at 1 µM stood at 13 min. In addition, on BRN2, the inhibition at 10 µM was 81.7% and the inhibition at 30 µM turned out to be 91.5%.
With `FC(F)(F)c1ccc2cc(-c3csc(-c4cc[nH]c4)n3)oc2c1` [VPC-18-111], in series [2], the “Met Stab % (60 mins HLM/MLM)” value was 38% and the half-life at 1 µM came out at 48 min. At BRN2, the inhibition at 10 µM is 96.2% and the inhibition at 30 µM is 98.6%.
With `c1ccc2c(-c3cnc(-c4ccoc4)s3)coc2c1` [VPC-18-112], in series [2], the “Met Stab % (60 mins HLM/MLM)” value is given as 1% and the half-life at 1 µM amounted to 9 min. Besides, at BRN2, the inhibition at 10 µM was found to be 41.8% and the inhibition at 30 µM was 81.6%.
The corresponding values for `Oc1ccc2cc(-c3csc(-c4ccco4)n3)oc2c1` [VPC-18-113] are 3%, 12 min, 94% and 94%.
`Clc1ccc2cc(-c3csc(C4CCCO4)n3)oc2c1` (stereo not drawn) [VPC-18-114]: in series [2], the “Met Stab % (60 mins HLM/MLM)” value turned out to be 14% and the half-life at 1 µM is 25 min. Moreover, at BRN2, the inhibition at 10 µM came to 92% and the inhibition at 30 µM worked out at 95%.
The matching figures for `COc1ccc2cc(-c3csc(-c4ccco4)n3)oc2c1` [VPC-18-118]: 1%, 9 min, 74% and 92.5%.
Consider `FC(F)(F)c1ccc2cc(-c3coc(-c4ccco4)n3)oc2c1` [VPC-18-120], for which, in series [2], the “Met Stab % (60 mins HLM/MLM)” value was found to be 6% and the half-life at 1 µM worked out at 13 min. Moreover, at BRN2, the inhibition at 10 µM is 88.9% and the inhibition at 30 µM worked out at 88.8%.
Consider `Clc1ccc2cc(-c3coc(-c4ccco4)n3)oc2c1` [VPC-18-121], for which, in series [2], the “Met Stab % (60 mins HLM/MLM)” value is 0% and the half-life at 1 µM came to 8 min. For the same compound, on BRN2, the inhibition at 10 µM is 92.7% and the inhibition at 30 µM was found to be 93.5%.
